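Assay format: 96-well plates, 48-hour exposure. At the TGI there is no net growth.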
Experiments:
Assay in all cases: NCI tumour cell line growth inhibition, 48 h
HCC-2998 colon = tested on: HCC-2998 colon
HCT-116 colon = tested on: HCT-116 colon
LOX IMVI melanoma = tested on: LOX IMVI melanoma
M14 melanoma = tested on: M14 melanoma
MDA-MB-435 = tested on: MDA-MB-435
MDA-N = tested on: MDA-N
MOLT-4 leukemia = tested on: MOLT-4 leukemia
NCI-H23 lung = tested on: NCI-H23 lung
OVCAR-3 ovarian = tested on: OVCAR-3 ovarian
OVCAR-5 ovarian = tested on: OVCAR-5 ovarian
PC-3 prostate = tested on: PC-3 prostate
RXF 393 renal = tested on: RXF 393 renal
SF-295 CNS = tested on: SF-295 CNS
SF-539 CNS = tested on: SF-539 CNS
SNB-19 CNS = tested on: SNB-19 CNS
SR leukemia = tested on: SR leukemia
SW-620 colon = tested on: SW-620 colon
UACC-257 melanoma = tested on: UACC-257 melanoma
HL-60(TB) leukemia = tested on: HL-60(TB) leukemia
K-562 leukemia = tested on: K-562 leukemia

Measured: TGI

COCCOC1=C(Cl)C(=O)c2c(O)ccc(O)c2C1=O
9.54 µM: NCI-H23 lung
35.1 µM: SF-295 CNS
2.23 µM: MDA-MB-435
0.481 µM: MOLT-4 leukemia
4.85 µM: UACC-257 melanoma
3.22 µM: M14 melanoma
2.6 µM: HCT-116 colon
3.28 µM: LOX IMVI melanoma
13 µM: PC-3 prostate
1.4 µM: SW-620 colon
3.03 µM: MDA-N
29.2 µM: SNB-19 CNS
3.08 µM: OVCAR-3 ovarian
15.6 µM: HCC-2998 colon
3.19 µM: SR leukemia
1.7 µM: RXF 393 renal
13.7 µM: OVCAR-5 ovarian
5.46 µM: SF-539 CNS

NNc1ncc2c(n1)-c1ccccc1OC2
45.8 µM: HL-60(TB) leukemia
> 100 µM: HCT-116 colon | K-562 leukemia | LOX IMVI melanoma | M14 melanoma | MDA-MB-435 | MDA-N | MOLT-4 leukemia | NCI-H23 lung | OVCAR-3 ovarian | OVCAR-5 ovarian | PC-3 prostate | RXF 393 renal | SF-295 CNS | SF-539 CNS | SNB-19 CNS | SR leukemia | SW-620 colon | UACC-257 melanoma

O=c1c2ccccc2nc2sc(/N=C/C=C/c3ccccc3)nn12
> 100 µM: HCC-2998 colon | HCT-116 colon | K-562 leukemia | LOX IMVI melanoma | M14 melanoma | MDA-MB-435 | MDA-N | MOLT-4 leukemia | NCI-H23 lung | OVCAR-3 ovarian | OVCAR-5 ovarian | PC-3 prostate | RXF 393 renal | SF-295 CNS | SF-539 CNS | SNB-19 CNS | SR leukemia | SW-620 colon | UACC-257 melanoma

CC(=O)Oc1ccc(/C=C/C(=O)OCCOC(=O)/C=C/c2ccc(OC(C)=O)c(OC(C)=O)c2)cc1OC(C)=O
28 µM: MDA-MB-435
22.6 µM: UACC-257 melanoma
58.8 µM: PC-3 prostate
25.3 µM: M14 melanoma
18.7 µM: NCI-H23 lung
> 77.9 µM: SNB-19 CNS
20.9 µM: HCT-116 colon
> 44.6 µM: HL-60(TB) leukemia
13.4 µM: SF-539 CNS
23.5 µM: MDA-N
> 60.1 µM: OVCAR-5 ovarian
28.6 µM: HCC-2998 colon
25.4 µM: SF-295 CNS
49 µM: SW-620 colon
> 38.5 µM: MOLT-4 leukemia
21.3 µM: RXF 393 renal
16.3 µM: LOX IMVI melanoma
20.7 µM: SR leukemia
> 28.6 µM: OVCAR-3 ovarian
> 100 µM: K-562 leukemia

C[N+](C)(C)CCOP(=O)([O-])OCCNC(=O)c1ccc2ccccc2c1
> 100 µM: HCC-2998 colon | HCT-116 colon | HL-60(TB) leukemia | K-562 leukemia | LOX IMVI melanoma | M14 melanoma | MDA-MB-435 | MDA-N | MOLT-4 leukemia | NCI-H23 lung | OVCAR-3 ovarian | OVCAR-5 ovarian | PC-3 prostate | RXF 393 renal | SF-295 CNS | SF-539 CNS | SNB-19 CNS | SR leukemia | SW-620 colon | UACC-257 melanoma

N#CCC1(c2ccc(Cl)cc2)NC(=O)c2ccccc21 (stereo not given)
> 100 µM: HCT-116 colon | HL-60(TB) leukemia | K-562 leukemia | LOX IMVI melanoma | M14 melanoma | MDA-MB-435 | MDA-N | MOLT-4 leukemia | NCI-H23 lung | OVCAR-3 ovarian | OVCAR-5 ovarian | PC-3 prostate | RXF 393 renal | SF-295 CNS | SF-539 CNS | SNB-19 CNS | SR leukemia | SW-620 colon | UACC-257 melanoma

O=c1c2cc(S(=O)(=O)Nc3ccc(Cl)cc3Cl)ccc2ncn1NS(=O)(=O)c1cccc2ccccc12
70.6 µM: SR leukemia
50 µM: LOX IMVI melanoma
85.5 µM: MOLT-4 leukemia
> 100 µM: HCC-2998 colon | HCT-116 colon | K-562 leukemia | M14 melanoma | MDA-MB-435 | MDA-N | NCI-H23 lung | OVCAR-3 ovarian | OVCAR-5 ovarian | PC-3 prostate | SF-295 CNS | SF-539 CNS | SNB-19 CNS | SW-620 colon | UACC-257 melanoma
37.5 µM: HL-60(TB) leukemia

COC(=O)c1ccc(/C=C2\Oc3cc(O)ccc3C2=O)cc1
> 100 µM: HCC-2998 colon | HCT-116 colon | HL-60(TB) leukemia | K-562 leukemia | M14 melanoma | MDA-MB-435 | MDA-N | MOLT-4 leukemia | NCI-H23 lung | OVCAR-3 ovarian | PC-3 prostate | SF-295 CNS | SF-539 CNS | SNB-19 CNS | SR leukemia | SW-620 colon | UACC-257 melanoma
77.3 µM: RXF 393 renal

CCOC(=O)C(NC(=O)c1cccc(Cl)c1)(N1CCN(c2cc3c(cc2F)c(=O)c(C(=O)O)cn3C2CC2)CC1)C(F)(F)F (stereo not given)
29.5 µM: OVCAR-3 ovarian
20.1 µM: K-562 leukemia
28.8 µM: MDA-MB-435
53.5 µM: SF-295 CNS
37.1 µM: NCI-H23 lung
34.8 µM: HCC-2998 colon
31.1 µM: OVCAR-5 ovarian
25.5 µM: HCT-116 colon
84.9 µM: SNB-19 CNS
29.4 µM: MDA-N
6.64 µM: HL-60(TB) leukemia
33.2 µM: M14 melanoma
34.4 µM: RXF 393 renal
25.8 µM: SR leukemia
27.2 µM: SW-620 colon
31.3 µM: SF-539 CNS
34.6 µM: PC-3 prostate
15.9 µM: MOLT-4 leukemia

CCOC(=O)C(NC(=O)c1ccccc1)(Nc1ccc(S(=O)(=O)Nc2cc(C)nc(C)n2)cc1)C(F)(F)F (stereo not given)
> 100 µM: HCT-116 colon | HL-60(TB) leukemia | K-562 leukemia | LOX IMVI melanoma | M14 melanoma | MDA-MB-435 | MDA-N | MOLT-4 leukemia | NCI-H23 lung | OVCAR-3 ovarian | OVCAR-5 ovarian | PC-3 prostate | RXF 393 renal | SF-295 CNS | SF-539 CNS | SNB-19 CNS | SR leukemia | SW-620 colon | UACC-257 melanoma

O=C(NNC(=O)c1ccccc1O)c1ccco1
> 100 µM: HCT-116 colon | HL-60(TB) leukemia | K-562 leukemia | LOX IMVI melanoma | M14 melanoma | MDA-MB-435 | MDA-N | MOLT-4 leukemia | OVCAR-3 ovarian | OVCAR-5 ovarian | PC-3 prostate | RXF 393 renal | SF-295 CNS | SF-539 CNS | SNB-19 CNS | SR leukemia | SW-620 colon | UACC-257 melanoma

O=C(N/N=C/c1ccc(Cl)cc1)c1ccccc1Nc1ccccc1C(=O)N/N=C/c1ccc(Cl)cc1
> 100 µM: HCC-2998 colon | HCT-116 colon | K-562 leukemia | LOX IMVI melanoma | M14 melanoma | MDA-MB-435 | MDA-N | MOLT-4 leukemia | NCI-H23 lung | OVCAR-3 ovarian | OVCAR-5 ovarian | PC-3 prostate | RXF 393 renal | SF-295 CNS | SNB-19 CNS | SR leukemia | SW-620 colon | UACC-257 melanoma

Reference: PubChem BioAssay (NCI)
